Measurements from PubChem BioAssay (NCI).
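Each compound was tested at five concentrations against cells in 96-well plates for 48 hours. GI50: concentration for 50% inhibition of growth. The concentration for full growth arrest is given as TGI.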

What was measured:
Assay in all cases: DTP human tumour cell line panel, 48 h
[1] = test system: SNB-78 CNS
[2] = test system: DMS 273 small cell lung
[3] = test system: KM20L2 colon
[4] = test system: M19-MEL melanoma
[5] = test system: DLD-1 colon
[6] = test system: T-47D breast
[7] = test system: MCF7 breast
[8] = test system: BT-549 breast
[9] = test system: MDA-MB-435
[10] = test system: DU-145 prostate

Compound | TGI [1] | TGI [2] | TGI [3] | TGI [4] | TGI [5] | further results
COc1ccc(OC)c(NC(=O)C2=C(C)NC(C)=C(C(=O)Nc3cc(OC)ccc3OC)C2c2ccccc2)c1 | > 100 µM | > 100 µM | > 100 µM | > 100 µM | > 100 µM | –
Cc1ccc(C(=O)c2nnc(C(=O)c3ccc(C)cc3)nn2)cc1 | > 100 µM | > 100 µM | > 100 µM | 61.5 µM | > 100 µM | –
Cc1ccc(NC(=O)C(=O)C(C#N)c2ccccc2C)cc1C (stereo not drawn) | > 100 µM | > 100 µM | > 100 µM | – | > 100 µM | –
NC1C[C@H](n2cc(/C=C/Br)c(=O)[nH]c2=O)C[C@@H]1CO (stereo partly drawn) | – | > 100 µM | > 100 µM | > 100 µM | > 100 µM | –
N#C/C(=C\c1ccc(O)c(O)c1)C(N)=S | > 100 µM | > 100 µM | > 100 µM | > 100 µM | > 100 µM | –
O=[N+]([O-])C1C2C=CC(C2)[C@H]1c1ccco1 (stereo partly drawn) | > 100 µM | > 100 µM | > 100 µM | > 100 µM | > 100 µM | –
CC1SC2=NC3=C(c4ccccc4C3=O)C(c3ccc(F)cc3)N2C1=O (stereo not drawn) | – | > 100 µM | > 100 µM | > 100 µM | > 100 µM | –
O=C(N/C(=C\c1ccc2c(c1)OCO2)c1nc2ccccc2[nH]1)c1ccccc1 | > 95.9 µM | > 100 µM | > 89.7 µM | 19.8 µM | > 100 µM | –
COc1cc(C(=O)C/C(CCCC(=O)Nc2ccccc2[N+](=O)[O-])=N/NC(=O)c2cc3ccccc3cc2O)ccc1O | > 100 µM | 43.6 µM | > 91.1 µM | – | > 95 µM | –
CC(C)[C@H]1CO[C@]2(C)[C@@H]3CN(Cc4ccccc4)C[C@@H]3C(=O)N12 | – | > 100 µM | > 100 µM | > 100 µM | > 100 µM | –
COc1cc(OC(C)=O)cc2c(OC(C)=O)ccc(OC(C)=O)c12 | > 100 µM | – | > 100 µM | – | – | –
COC(C(=O)[O][Ge]([CH3])([CH3])[CH3])c1ccccc1 (stereo not drawn) | > 100 µM | – | > 100 µM | > 100 µM | > 100 µM | GI50 [1]: > 100 µM; GI50 [3]: > 100 µM; GI50 [4]: > 100 µM; GI50 [5]: > 100 µM
Cc1c(C(=O)C/C(=N\O)C(=O)Nc2cc(Cl)c(Cl)cc2Cl)[n+](=O)c2ccccc2n1[O-] | > 100 µM | 38 µM | 41.4 µM | 5.1 µM | 81.8 µM | –
C1C[OH+]CC[OH+]CCNCC[OH+]CC[OH+]CCN1.N.[Cl-].[Pt+4] | 63.3 µM | 15.7 µM | > 100 µM | – | > 100 µM | GI50 [1]: 4.15 µM; GI50 [2]: 2.87 µM; GI50 [3]: 30.3 µM; GI50 [5]: 20.2 µM
CCN(CC)c1ccc(C(=O)c2ccccc2C(=O)O)c(O)c1 | > 100 µM | > 100 µM | – | > 100 µM | – | –
COc1ccc(C2=Nc3ccccc3NC(=O)C2)cc1 | 70 µM | > 100 µM | > 100 µM | > 100 µM | > 100 µM | –
Cc1cc(N(CCC#N)CCC#N)ccc1N=Nc1cccc(C(=O)O)c1 | > 100 µM | > 100 µM | – | > 100 µM | > 100 µM | –
CCCNC1=C(C(=O)OCC)C(=O)CO1 | > 100 µM | > 100 µM | > 100 µM | > 100 µM | > 100 µM | –

Compound | TGI [1] | TGI [2] | TGI [3] | TGI [4] | TGI [5] | further results
CCCCCCCCCCCC(=O)OCC1OC(n2cc(F)c(=O)[nH]c2=O)C(NC(=O)OCc2ccccc2)C(OC(=O)CCCCCCCCCCC)C1O (stereo not drawn) | > 100 µM | > 100 µM | > 100 µM | > 100 µM | > 100 µM | –
CCc1ccccc1NC(=O)C(=O)CC(=O)c1sc(Nc2ccccc2)nc1C | > 100 µM | > 100 µM | > 100 µM | > 100 µM | > 100 µM | –
Cc1[nH]ccc2c1[nH]c1cc(=O)ccc12 | > 100 µM | > 100 µM | > 100 µM | > 100 µM | > 100 µM | –
CC1=C(C)C(=O)c2c(cc3ccccn23)C1=O | 77.5 µM | 32.2 µM | – | 4.42 µM | – | –
CN(C)C(=O)OC(Cn1cncn1)c1ccc(Cl)cc1Cl (stereo not drawn) | > 100 µM | > 100 µM | > 100 µM | > 100 µM | > 100 µM | –
C/C(=N\NS(=O)(=O)c1ccccc1)c1ccc(Cl)c(Cl)c1 | > 100 µM | > 100 µM | > 100 µM | > 100 µM | > 100 µM | –
CC1=C(Oc2ccccc2)C(CCC(=O)O)c2c(O)cc(Cl)c(O)c21 (stereo not drawn) | > 100 µM | > 100 µM | > 100 µM | > 100 µM | > 100 µM | –
Nc1ccn(CCNCCn2cnc3nc(N)[nH]c(=O)c32)c(=O)n1 | > 100 µM | – | > 100 µM | – | > 100 µM | –
CC(=O)OCC1OC(OC2C(CSC3OC(COC(C)=O)C(OC(C)=O)C(OC(C)=O)C3OC(C)=O)OC(OC(C)=O)C(OC(C)=O)C2OC(C)=O)C(OC(C)=O)C(OC(C)=O)C1OC(C)=O (stereo not drawn) | > 100 µM | > 100 µM | > 100 µM | > 100 µM | > 100 µM | –
CC1(C)C(=NNC(=O)C[N+](C)(C)C)C(C)(C)C1=NNC(=O)C[N+](C)(C)C | > 100 µM | > 100 µM | > 100 µM | > 100 µM | > 100 µM | –
CCOc1ccc(NC(=O)C(=O)CC(=O)C2=C(C)Nc3ccccc3S2)cc1 | – | – | > 50 µM | > 50 µM | > 50 µM | –
CC1=Nc2ccccc2S/C1=C(/C)NNC(=O)C(N)=O | > 100 µM | > 100 µM | > 100 µM | > 100 µM | > 100 µM | –
COc1ccc2nc(-c3cccs3)cc(C(O)CN3CCSCC3)c2c1 (stereo not drawn) | – | 40 µM | 45.5 µM | 58.6 µM | > 100 µM | –
CCCCCCCCCCC(C(=O)O)C1(C(=O)O)CCC(=O)O1 (stereo not drawn) | – | – | – | – | – | TGI [6]: > 100 µM; TGI [7]: > 100 µM; TGI [8]: > 100 µM; TGI [9]: > 100 µM; TGI [10]: > 100 µM
CCOC(=O)COc1ccccc1/C=C1\CCC(CN(C)C)C1=O (stereo not drawn) | 62.6 µM | 8.17 µM | 30.2 µM | 8.98 µM | 12.2 µM | TGI [7]: 19.8 µM
O=C(CN1CCOCC1)Nc1nc(-c2ccc(Cl)cc2)cs1 | > 100 µM | 41.8 µM | – | > 100 µM | > 100 µM | –
C=CCC[CH2][Sn]([c]1ccccc1)([c]1ccccc1)[c]1ccccc1 | 4.83 µM | 3.03 µM | 3.36 µM | 4.49 µM | 2.98 µM | GI50 [1]: 1.73 µM; GI50 [2]: 1.58 µM; GI50 [3]: 1.83 µM; GI50 [4]: 2.17 µM; GI50 [5]: 1.51 µM
